How the values were obtained:
[1] = Toxicity in mice bearing A549 xenografts; assay type: in vivo, Nu/Nu nude mice; conditions: 28 days
Procedure: To assess whether BKA-073 induced suppression of tumor growth occurs through activation of Bak and apoptosis in vivo, representative samples from harvested tumor tissues were analyzed by cross-linking with BMH for Bak oligomerization or by immunohistochemistry (IHC) for active caspase 3 as described, [29], [47]. […] There were no decreases in white cells (WBC), red blood cells (RBC) and platelets (PLT) in blood.
Figure 5 Toxicity of BKA-073 in vivo. (A-C) Body weight (A), blood analysis (B) and H&E histology of various organs (C) from mice bearing A549 xenografts after treatment with increasing doses (0, 5, 10, 15mg/kg/d) of BKA-073 for 28 days. […]
Whole blood (250µL) was collected in EDTA-coated tubes via cardiac puncture of anesthetized
mice for hematology studies. […]

[2] = tested on: H1299, H460 and A549 cells; experiment: Sulforhodamine B (SRB) cytotoxicity screening; assay type: cell-based, human; conditions: SRB assay
Source text: The BH3 death domain is known to be required for the proapoptotic function of Bak. We chose the BH3 domain binding pocket (aa75-88) of Bak (PDB ID: 2YV6) as a docking site for screening of small molecules using the UCSF DOCK 6.1 program suite and the NCI chemical library (300,000 small molecule) database as we recently described, [20], [29], [34]. Small molecules were ranked according to their energy scores. The top 500 compounds determined to have the highest affinity for the BH3 domain were obtained from the NCI and tested for cytotoxicity in human lung cancer cells (i.e. H1299, H460 and A549 cells) by sulforhodamine B (SRB) assay for further screening as described, [36]. […] We named this lead compound Bak activator BKA-073 (C19H24ClN3O2, MW: 361.87) (Figure 1A). To test the effect of BKA-073 on mitochondrial priming (∆% priming) and apoptotic cell death, human lung cancer A549 cells were treated with increasing concentrations (0, 0.25, 0.5, 0.75, 1.0 µM) of BKA-073, followed by analysis of dynamic BH3 profiling (DBP) at 16h and apoptotic cell death at 72h as described, [37]. […] In addition to lung cancer cell lines, we evaluated the efficacy of BKA-073 in other types of cancer cell lines, including breast cancer (MDA-MB-231 and MCF7), colon cancer (HCT-116), lymphoma (Ramos), multiple myeloma (OPM-1), pancreatic cancer (PANC-1) and osteosarcoma (U2OS) cell lines. […]

COc1ccc2nc3ccccc3c(NCCNCC(C)O)c2c1 (stereo not drawn) [BKA-073]
body weight ([1]; 5, 10, 15mg/kg/d i.p.): No weight loss
kidney (BUN) and liver (ALT and AST) function ([1]; 5, 10, 15mg/kg/d i.p.): in the normal range
white cells (WBC), red blood cells (RBC) and platelets (PLT) in blood ([1]; 5, 10, 15mg/kg/d i.p.): no decreases
tolerability ([1]; 5-15mg/kg/d i.p.): well tolerated without significant toxicity
histopathology of normal tissues (heart, liver, lung, brain, spleen, kidney, intestine) ([1]; 5~15mg/kg/d i.p.): no evidence of normal tissue toxicities
cytotoxicity among top 500 docking hits [2]: most potent activity
